How the values were obtained:
[1] = system: High-fat fed C57BL6/J mice; experiment: High-fat fed C57BL/6J mice, valeric acid gavage: body weight, food intake, blood glucose homeostasis (OGTT); format: in vivo
Source text: In an animal experiment of high-fat model mice at a first stage, 6-8-week-old male C57BL/6J mice without specific pathogens (SPF grade) are firstly purchased from Liaoning Changsheng Biotechnology Co., Ltd., Experimental animal feeds are ordered from Beijing keaoxieli Feed Co., Ltd., including a mouse AIN-93M maintenance feed and a high-fat feed with a fat energy supply ratio of 45%; the nutrient compositions of the two feeds are in accordance with a rodent experimental animal feed formula recommended by U.S. Department of agriculture; and the AIN-93M maintenance feed is stored at a room temperature, and the high-fat feed with the energy supply ratio of 45% is stored at the low temperature of −20° C.
The animal experimental research was implemented in accordance with the rules and regulations required by Experimental Animal Management Committee of Harbin Medical University, and animals were raised in a laboratory of Clean Experimental Animal Center of School of Public Health of Harbin Medical University. The laboratory conditions are as follows: a temperature is 21.0 (±1.5) degrees Celsius, a relative humidity is 50 (±5)%, lighting is alternately performed for 12:12 hours by using a fluorescent lamp, the feed is freely taken, and distilled water is freely drunk. After being received, 6-8-week-old C57BL6/J mice as a kind of SPF experimental animals were fed in a single cage, and were arranged to freely drink the distilled water and uptake an animal feed for a week of adaptive feeding. Subsequently, the mice were weighed and randomly divided into 4 experimental groups according to the weights of the mice; and the 4 experimental groups were fed with the AIN-93M maintenance feed and the 45% high-fat feed respectively, and were treated with phosphate buffer salt solution (PBS) and different metabolite solutions by oral gavage. […]
During the feeding period of experimental animals, a scattered food amount and a leftover food amount of mice were weighed with an electronic scale and recorded and fresh feeds were changed every day, and a daily food intake was calculated. […] The weights of the mice were weighed and recorded once a week, and a clean animal bedding subjected to high-pressure disinfection was replaced. […] According to conversion of oral and intravenous doses in Pharmacological Experimental Methodology edited by Shuyun Xu and an equivalent dose ratio of rats and mice, a dose of the valeric acid is finally determined as 75 mg/kg which is approximately equal to ⅛ of a half lethal dose of the valeric acid, meeting a safety range in toxicology. […]

[2] = system: db/db mouse islet tissues; experiment: Histopathology of pancreatic tissues of db/db mice (HE, immunofluorescence); format: in vivo
Procedure: During the subsequent test, in order to observe pathological morphologies of animal tissues, paraffin sections of mouse tissues were made and subjected to HE staining, immunohistochemical staining and immunofluorescence staining. […] Histopathological examination is also performed on the pancreatic tissues of db/db mice.

[3] = 8 weeks of intervention, HF-V vs HF-PBS control group

CCCCC(=O)O [valeric acid]
areas under OGTT-2h blood glucose curves [1, 3]: significantly lower | fasting blood glucose [1, 3]: significantly lower | fasting insulin contents [1, 3]: significantly lower | weights of mice ([1]; valeric acid 75 mg/kg/d gavage (as sodium valerate), vs HF-PBS group, after the sixth week): significantly lower | islet area ([2]; HE staining): increased significantly | islet cells ([2]; HE staining): increased significantly | proportion of Ki67 (+) ([2]; Ki67/insulin staining): increased significantly | ratio of the insulin to glucagon ([2]; immunofluorescence): increased significantly
